Test results as given in patent publication US9963446B2, “Oxepan-2-yl-pyrazol-4-yl-heterocyclyl-carboxamide compounds and methods of use” (Genentech, Inc., priority 2014, dated 2018).

How the values were obtained:
BaF3 parental cells = assay: In vitro cell proliferation, BaF3 parental line + IL3; type: cell-based, murine; details: Mus musculus; BaF3 parental line with mIL-3, incubated overnight; read-out: Prolif BaF3 + IL3 (IC50)
Procedure: (§1) BaF3 parental line was obtained from the DSMZ repository. BaF3 lines transfected with PIM1 or PIM2 were generated. Mouse IL-3 was purchased from R&D Systems. G418 was purchased from Clontech. Media for BaF3 parental line contained RPMI, 10% FBS, 2 mM L-Glutamine, 2 ng/mL mIL-3. Media for BaF3 PIM1 & 2 lines contained RPMI, 10% FBS, 2 mM L-Glutamine, […]. Media for MM1.S (multiple myeloma cells) line contained RPMI, 10% FBS, 2 mM L-Glutamine.
(§2) BaF3, a murine interleukin-3 dependent pro-B cell line, parental cells, BaF3 PIM1 cells, BaF3 PIM2 cells, and MM1.S (multiple myeloma) cells were seeded at 2 k/well, 5 k/well, 5 k/well, and 10 k/well respectively, in a 384-well plate, at 45 μL/well. Test compound was added at 5 μL/well. BaF3 cells (parental and transfected) were incubated overnight, while MM1.S cells were incubated for 72 hours at 37° C., 5% CO2. CELL TITER GLO® Reagent (Promega) was added at 50 μL/well, the plates were incubated for 30 minutes, and their luminescence read on an HT Analyst. IC50/EC50 values for the test compound were calculated.

BaF3 PIM1 cells = assay: In vitro cell proliferation, BaF3 transfected with PIM1; type: cell-based, murine; details: Mus musculus; BaF3 PIM1 line, incubated overnight; read-out: Prolif BaF3 PIM1 (IC50)
Procedure: as §1, §2

[1] = test system: MM1.S (multiple myeloma) cells; assay: In vitro cell proliferation, MM1.S (CELL TITER GLO); type: cell-based; details: Homo sapiens, 72 hours, read-out: Prolif MM1S ATP (EC50)
Procedure: as §1, §2

PIM1 = PIM1 (Homo sapiens (Human), UniProt P11309); assay: Pim kinase binding activity (PIM1 LC3K Ki); type: biochemical; details: 20 pM PIM1, 10 μM ATP, 90 minutes
Procedure: PIM-1, -2, and -3 enzymes were generated as fusion proteins expressed in bacteria and purified by IMAC column chromatography (Sun, X., Chiu, J. F., and He, Q. Y. (2005) Expert Rev. Proteomics, 2:649-657). A fluorescent-labeled Pim-specific peptide substrate, was custom synthesized by American Peptide Company (Sunnyvale, Calif.). Reaction Buffer contained 10 mM HEPES, pH 7.2, 10 mM MgCl2, 0.01% Tween 20, 2 mM DTT. Termination Buffer contained 190 mM HEPES, pH 7.2, 0.015% Brij-35, 0.2% Coating Reagent 3 (Caliper Life Sciences, Hopkinton, Mass.), 20 mM EDTA. Separation Buffer contained 100 mM HEPES, pH 7.2, 0.015% Brij-35, 0.1% Coating Reagent 3, 1:200 Coating Reagent 8 (Caliper Life Sciences, Hopkinton, Mass.), 10 mM EDTA and 5% DMSO.
PIM reactions were carried out in a final volume of 10 μL per well in a 384-well plate. A standard enzymatic reaction, initiated by the addition of 5 μL 2×ATP and test compound to 5 μL of 2× enzyme and FAM-peptide, contained 20 pM PIM1, 50 pM PIM2, or 55 pM PIM3, 1 μM FAM-peptide, and 10 μM ATP, in Reaction Buffer. After 90 minutes of incubation at room temperature, the phosphorylation reaction was stopped by the addition of 10 μL Termination Buffer. The product and substrate in each independent reaction were separated on a 12-sipper microfluidic chip (Caliper Life Sciences, Hopkinton, Mass.) run on a Caliper LC3000® (Caliper Life Sciences, Hopkinton, Mass.). The separation of product and substrate was optimized by choosing voltages and pressure using Caliper's Optimizer software (Hopkinton, Mass.). The separation conditions used a downstream voltage of −500V, an upstream voltage of −2150V, and a screening pressure of −1.2 psi. The product and substrate fluorophore were excited at 488 nm and detected at 530 nm. Substrate conversion was calculated from the electropherogram using HTS Well Analyzer software (Caliper Life Sciences, Hopkinton, Mass.). Ki values for the test compound were calculated. See Table 1 for representative PIM1 LC3K Ki in micromolar values of exemplary compounds.

Sequence of PIM1 (P11309 whole entry, the tested form may be a part): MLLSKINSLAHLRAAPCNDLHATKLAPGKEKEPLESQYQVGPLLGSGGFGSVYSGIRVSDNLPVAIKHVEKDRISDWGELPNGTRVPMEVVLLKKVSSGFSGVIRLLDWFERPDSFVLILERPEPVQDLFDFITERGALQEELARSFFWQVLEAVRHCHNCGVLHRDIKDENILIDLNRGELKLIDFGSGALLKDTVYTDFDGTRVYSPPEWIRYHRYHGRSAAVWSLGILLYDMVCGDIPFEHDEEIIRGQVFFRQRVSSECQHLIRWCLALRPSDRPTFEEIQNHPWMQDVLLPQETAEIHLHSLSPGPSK

Row | IC50 (BaF3 PIM1 cells) | EC50 [1] | Ki (PIM1) | Structure (SMILES) | IC50 (BaF3 parental cells)
1 | 24.8 nM | 441 nM | 0.002 nM | C[C@H](F)c1cc(F)c(-c2nc(C(=O)Nc3cnn(C)c3[C@@H]3CC[C@@H](N)[C@H](F)CO3)cs2)c(F)c1 [Example 101, N-(5-((2S,5R,6S)-5-amino-6-fluorooxepan-2-yl)-1-methyl-1H-pyrazol-4-yl)-2-(2,6-difluoro-4-((S)-1-fluoroethyl)phenyl)thiazole-4-carboxamide] | 7100 nM
2 | 164 nM | 702 nM | 0.121 nM | Cn1ncc(NC(=O)c2csc(-c3c(O)cccc3F)n2)c1[C@@H]1CC[C@@H](N)[C@H](F)CO1 [Example 102, N-[5-[(2S,5R,6S)-5-amino-6-fluoro-oxepan-2-yl]-1-methyl-pyrazol-4-yl]-2-(2-fluoro-6-hydroxy-phenyl)thiazole-4-carboxamide] | 9100 nM
3 | 145 nM | 731 nM | 0.18 nM | N[C@H]1CC[C@H](c2c(NC(=O)c3csc(-c4c(F)cccc4F)n3)cnn2C2CC2)OC[C@@H]1F [Example 103, N-[5-[(2R,5S,6R)-5-amino-6-fluoro-oxepan-2-yl]-1-cyclopropyl-pyrazol-4-yl]-2-(2,6-difluorophenyl)thiazole-4-carboxamide] | 12000 nM
4 | 98.5 nM | 544 nM | 0.104 nM | Cn1ncc(NC(=O)c2csc(-c3ccc4c(c3)CCO4)n2)c1[C@@H]1CC[C@@H](N)[C@H](F)CO1 [Example 104, N-[5-[(2S,5R,6S)-5-amino-6-fluoro-oxepan-2-yl]-1-methyl-pyrazol-4-yl]-2-(2,3-dihydrobenzofuran-5-yl)thiazole-4-carboxamide] | 13200 nM
5 | 142 nM | 473 nM | 0.095 nM | Cn1ncc(NC(=O)c2csc(-c3cnccn3)n2)c1[C@@H]1CC[C@@H](N)[C@H](F)CO1 [Example 105, N-[5-[(2S,5R,6S)-5-amino-6-fluoro-oxepan-2-yl]-1-methyl-pyrazol-4-yl]-2-pyrazin-2-yl-thiazole-4-carboxamide] | > 25000 nM
6 | 29.9 nM | 235 nM | 0.015 nM | C[C@@H](F)c1cc(F)c(-c2nc(C(=O)Nc3cnn(C)c3[C@@H]3CC[C@@H](N)[C@H](F)CO3)cs2)c(F)c1 [Example 106, N-(5-((2S,5R,6S)-5-amino-6-fluorooxepan-2-yl)-1-methyl-1H-pyrazol-4-yl)-2-(2,6-difluoro-4-((R)-1-fluoroethyl)phenyl)thiazole-4-carboxamide] | 8600 nM
7 | 264 nM | 5800 nM | 0.1 nM | CO[C@H]1[C@H](C)O[C@@H](c2c(NC(=O)c3csc(-c4c(F)cccc4F)n3)cnn2C)CC[C@@H]1N [Example 107, N-(5-((2R,5S,6R,7S)-5-amino-6-methoxy-7-methyloxepan-2-yl)-1-methyl-1H-pyrazol-4-yl)-2-(2,6-difluorophenyl)thiazole-4-carboxamide] | 20700 nM
8 | 80.5 nM | 490 nM | 0.042 nM | COc1cc(F)c(-c2nc(C(=O)Nc3cnn(C)c3[C@@H]3CC[C@@H](N)[C@H](F)CO3)cs2)cc1Cl [Example 108, N-[5-[(2S,5R,6S)-5-amino-6-fluoro-oxepan-2-yl]-1-methyl-pyrazol-4-yl]-2-(5-chloro-2-fluoro-4-methoxy-phenyl)thiazole-4-carboxamide] | 1900 nM
9 | 39.4 nM | 287 nM | 0.019 nM | Cn1ncc(NC(=O)c2csc(-c3cc4[nH]ncc4cc3F)n2)c1[C@@H]1CC[C@@H](N)[C@H](F)CO1 [Example 109, N-[5-[(2S,5R,6S)-5-amino-6-fluoro-oxepan-2-yl]-1-methyl-pyrazol-4-yl]-2-(5-fluoro-1H-indazol-6-yl)thiazole-4-carboxamide] | 3100 nM
10 | 63.8 nM | 148 nM | 0.018 nM | Cc1cnc(-c2nc(C(=O)Nc3cnn(C)c3[C@@H]3CC[C@@H](N)[C@H](F)CO3)cs2)cn1 [Example 110, N-[5-[(2S,5R,6S)-5-amino-6-fluoro-oxepan-2-yl]-1-methyl-pyrazol-4-yl]-2-(5-methylpyrazin-2-yl)thiazole-4-carboxamide] | 9200 nM
11 | 96.2 nM | 1500 nM | – | Cn1ncc(NC(=O)c2csc(-c3c(F)cc4c(c3F)OCC[C@@H]4O)n2)c1[C@@H]1CC[C@@H](N)[C@H](F)CO1 [Example 111, N-(5-((2S,5R,6S)-5-amino-6-fluorooxepan-2-yl)-1-methyl-1H-pyrazol-4-yl)-2-((S)-6,8-difluoro-4-hydroxychroman-7-yl)thiazole-4-carboxamide] | > 25000 nM
12 | 29.3 nM | 181 nM | – | N[C@@H]1CC[C@@H](c2c(NC(=O)c3csc(-c4c(F)cccc4F)n3)cnn2CC(F)F)OC[C@H]1F [Example 115, N-(5-((2S,5R,6S)-5-amino-6-fluorooxepan-2-yl)-1-(2,2-difluoroethyl)-1H-pyrazol-4-yl)-2-(2,6-difluorophenyl)thiazole-4-carboxamide] | 5500 nM
13 | 2750 nM | 2700 nM | – | N[C@H]1CC[C@H](c2c(NC(=O)c3csc(-c4c(F)cccc4F)n3)cnn2CC(F)F)OC[C@@H]1F [Example 116, N-(5-((2R,5S,6R)-5-amino-6-fluorooxepan-2-yl)-1-(2,2-difluoroethyl)-1H-pyrazol-4-yl)-2-(2,6-difluorophenyl)thiazole-4-carboxamide] | 10500 nM
14 | – | 54 nM | 0.051 nM | C[C@@H]1O[C@H](c2c(NC(=O)c3csc(-c4c(F)cccc4F)n3)cnn2C)CC[C@@H](N)[C@@H]1F [Example 124, N-[5-[(2S,5R,6S,7S)-5-amino-6-fluoro-7-methyl-oxepan-2-yl]-1-methyl-pyrazol-4-yl]-2-(2,6-difluorophenyl)thiazole-4-carboxamide] | –
15 | – | > 25000 nM | 32.8 nM | Cn1ncc(NC(=O)c2csc(-c3cn4ccncc4n3)n2)c1[C@@H]1CC[C@@H](N)[C@H](F)CO1 [Example 125, N-(5-((2S,5R,6S)-5-amino-6-fluorooxepan-2-yl)-1-methyl-1H-pyrazol-4-yl)-2-(imidazo[1,2-a]pyrazin-2-yl)thiazole-4-carboxamide] | –
16 | – | 8000 nM | 1.48 nM | N[C@H]1CC[C@H](c2[nH]ncc2NC(=O)c2csc(-c3c(F)cccc3F)n2)OC[C@@H]1F [Example 126, N-(5-((2R,5S,6R)-5-amino-6-fluorooxepan-2-yl)-1H-pyrazol-4-yl)-2-(2,6-difluorophenyl)thiazole-4-carboxamide] | –
17 | – | 10800 nM | 1.1 nM | Cc1cccnc1-c1nc(C(=O)Nc2cn[nH]c2[C@H]2CC[C@H](N)[C@@H](F)CO2)cs1 [Example 127, N-(5-((2R,5S,6R)-5-amino-6-fluorooxepan-2-yl)-1H-pyrazol-4-yl)-2-(3-methylpyridin-2-yl)thiazole-4-carboxamide] | –
18 | – | 3000 nM | 0.777 nM | Cc1cccnc1-c1nc(C(=O)Nc2cn[nH]c2[C@@H]2CC[C@@H](N)[C@H](F)CO2)cs1 [Example 128, N-(5-((2S,5R,6S)-5-amino-6-fluorooxepan-2-yl)-1H-pyrazol-4-yl)-2-(3-methylpyridin-2-yl)thiazole-4-carboxamide] | –
19 | – | 7300 nM | 0.958 nM | N[C@@H]1CC[C@@H](c2[nH]ncc2NC(=O)c2csc(-c3c(F)cccc3F)n2)OC[C@H]1F [Example 129, N-(5-((2S,5R,6S)-5-amino-6-fluorooxepan-2-yl)-1H-pyrazol-4-yl)-2-(2,6-difluorophenyl)thiazole-4-carboxamide] | –
